Data: PubChem BioAssay (NCI)
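96-well plates; 48 h exposure; 5 concentrations. Endpoints by linear interpolation between flanking doses. Not reached: highest tested concentration assigned. TGI is the concentration that stops growth completely.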

Columns and labels:
Test in all cases: inhibition of tumour cell growth, NCI panel, 48 h
CAKI-1 renal = system: CAKI-1 renal
SK-MEL-28 melanoma = system: SK-MEL-28 melanoma
NCI-H23 lung = system: NCI-H23 lung
OVCAR-8 ovarian = system: OVCAR-8 ovarian
SW-620 colon = system: SW-620 colon
LOX IMVI melanoma = system: LOX IMVI melanoma
IGROV1 ovarian = system: IGROV1 ovarian
T-47D breast = system: T-47D breast
SNB-75 CNS = system: SNB-75 CNS
SN12C renal = system: SN12C renal
HL-60(TB) leukemia = system: HL-60(TB) leukemia
HOP-62 NSCLC = system: HOP-62 NSCLC
OVCAR-4 ovarian = system: OVCAR-4 ovarian
UO-31 renal = system: UO-31 renal
MDA-MB-231 breast = system: MDA-MB-231 breast
NCI-H522 lung = system: NCI-H522 lung
MDA-MB-435 = system: MDA-MB-435
K-562 leukemia = system: K-562 leukemia
NCI-H226 lung = system: NCI-H226 lung
A549 NSCLC = system: A549 NSCLC
U251 CNS = system: U251 CNS
OVCAR-3 ovarian = system: OVCAR-3 ovarian
EKVX NSCLC = system: EKVX NSCLC
ACHN renal = system: ACHN renal
COLO 205 colon = system: COLO 205 colon
PC-3 prostate = system: PC-3 prostate
RXF 393 renal = system: RXF 393 renal
A498 renal = system: A498 renal
SK-MEL-2 melanoma = system: SK-MEL-2 melanoma
HCT-15 colon = system: HCT-15 colon
SF-268 CNS = system: SF-268 CNS
KM12 colon = system: KM12 colon
SF-539 CNS = system: SF-539 CNS
HCT-116 colon = system: HCT-116 colon
SK-MEL-5 melanoma = system: SK-MEL-5 melanoma
UACC-257 melanoma = system: UACC-257 melanoma
BT-549 breast = system: BT-549 breast
786-0 renal = system: 786-0 renal
HS 578T breast = system: HS 578T breast
OVCAR-5 ovarian = system: OVCAR-5 ovarian
SR leukemia = system: SR leukemia
SF-295 CNS = system: SF-295 CNS
NCI-H460 lung = system: NCI-H460 lung
CCRF-CEM leukemia = system: CCRF-CEM leukemia
SK-OV-3 ovarian = system: SK-OV-3 ovarian
NCI/ADR-RES ovarian = system: NCI/ADR-RES ovarian
MCF7 breast = system: MCF7 breast
UACC-62 melanoma = system: UACC-62 melanoma
HOP-92 NSCLC = system: HOP-92 NSCLC
MOLT-4 leukemia = system: MOLT-4 leukemia
MALME-3M melanoma = system: MALME-3M melanoma
M14 melanoma = system: M14 melanoma
MDA-N = system: MDA-N
DU-145 prostate = system: DU-145 prostate
TK-10 renal = system: TK-10 renal
SNB-19 CNS = system: SNB-19 CNS
HCC-2998 colon = system: HCC-2998 colon
HT29 colon = system: HT29 colon
RPMI-8226 leukemia = system: RPMI-8226 leukemia

CN(C)CC1CN(C(=O)Nc2ccccc2)C(=N)O1 (centres undefined)
TGI (CAKI-1 renal): > 100 µM
TGI (SK-MEL-28 melanoma): > 100 µM
TGI (NCI-H23 lung): > 100 µM
TGI (OVCAR-8 ovarian): > 100 µM
TGI (SW-620 colon): > 100 µM
TGI (LOX IMVI melanoma): > 100 µM
TGI (IGROV1 ovarian): > 100 µM
TGI (T-47D breast): > 100 µM
TGI (SNB-75 CNS): > 100 µM
TGI (SN12C renal): > 100 µM
TGI (HL-60(TB) leukemia): > 100 µM
TGI (HOP-62 NSCLC): > 100 µM
TGI (OVCAR-4 ovarian): > 100 µM
TGI (UO-31 renal): > 100 µM
TGI (MDA-MB-231 breast): > 100 µM
TGI (NCI-H522 lung): > 100 µM
TGI (MDA-MB-435): > 100 µM
TGI (K-562 leukemia): > 100 µM
TGI (NCI-H226 lung): > 100 µM
TGI (A549 NSCLC): > 100 µM
TGI (U251 CNS): > 100 µM
TGI (OVCAR-3 ovarian): > 100 µM
TGI (EKVX NSCLC): > 100 µM
TGI (ACHN renal): > 100 µM
TGI (COLO 205 colon): > 100 µM
TGI (PC-3 prostate): > 100 µM
TGI (RXF 393 renal): > 100 µM
TGI (A498 renal): > 100 µM
TGI (SK-MEL-2 melanoma): > 100 µM
TGI (HCT-15 colon): > 100 µM
TGI (SF-268 CNS): > 100 µM
TGI (KM12 colon): > 100 µM
TGI (SF-539 CNS): > 100 µM
TGI (HCT-116 colon): > 100 µM
TGI (SK-MEL-5 melanoma): > 100 µM
TGI (UACC-257 melanoma): > 100 µM
TGI (BT-549 breast): > 100 µM
TGI (786-0 renal): > 100 µM
TGI (HS 578T breast): > 100 µM
TGI (OVCAR-5 ovarian): > 100 µM
TGI (SR leukemia): > 100 µM
TGI (SF-295 CNS): > 100 µM
TGI (NCI-H460 lung): > 100 µM
TGI (CCRF-CEM leukemia): > 100 µM
TGI (SK-OV-3 ovarian): > 100 µM
TGI (NCI/ADR-RES ovarian): > 100 µM
TGI (MCF7 breast): > 100 µM
TGI (UACC-62 melanoma): > 100 µM
TGI (HOP-92 NSCLC): > 100 µM
TGI (MOLT-4 leukemia): > 100 µM
TGI (MALME-3M melanoma): > 100 µM
TGI (M14 melanoma): > 100 µM
TGI (MDA-N): > 100 µM
TGI (DU-145 prostate): > 100 µM
TGI (TK-10 renal): > 100 µM
TGI (SNB-19 CNS): > 100 µM
TGI (HCC-2998 colon): > 100 µM
TGI (HT29 colon): > 100 µM
TGI (RPMI-8226 leukemia): > 100 µM

CCOC(=O)C(SCCO)C(C(=O)OCC)n1cc(C)c(=O)[nH]c1=O (centres undefined)
TGI (CAKI-1 renal): 18.2 µM
TGI (SK-MEL-28 melanoma): > 65.6 µM
TGI (NCI-H23 lung): > 78.7 µM
TGI (OVCAR-8 ovarian): > 62.7 µM
TGI (SW-620 colon): > 43.1 µM
TGI (LOX IMVI melanoma): 19.2 µM
TGI (IGROV1 ovarian): > 65.4 µM
TGI (T-47D breast): > 100 µM
TGI (SNB-75 CNS): > 100 µM
TGI (SN12C renal): > 45.8 µM
TGI (HL-60(TB) leukemia): 4.88 µM
TGI (HOP-62 NSCLC): > 85.6 µM
TGI (OVCAR-4 ovarian): > 74.7 µM
TGI (UO-31 renal): > 62.8 µM
TGI (MDA-MB-231 breast): 48.9 µM
TGI (NCI-H522 lung): 17.6 µM
TGI (MDA-MB-435): > 56.1 µM
TGI (K-562 leukemia): 15.8 µM
TGI (NCI-H226 lung): > 61.4 µM
TGI (A549 NSCLC): > 100 µM
TGI (U251 CNS): 36.5 µM
TGI (OVCAR-3 ovarian): 51.7 µM
TGI (EKVX NSCLC): > 100 µM
TGI (ACHN renal): > 57.1 µM
TGI (COLO 205 colon): 23.3 µM
TGI (PC-3 prostate): 34.6 µM
TGI (RXF 393 renal): 43.7 µM
TGI (A498 renal): 47.5 µM
TGI (SK-MEL-2 melanoma): 51.1 µM
TGI (HCT-15 colon): 25.7 µM
TGI (SF-268 CNS): > 100 µM
TGI (KM12 colon): > 63.1 µM
TGI (SF-539 CNS): > 65.3 µM
TGI (HCT-116 colon): 22.6 µM
TGI (SK-MEL-5 melanoma): > 70.6 µM
TGI (UACC-257 melanoma): > 84.6 µM
TGI (BT-549 breast): > 85.1 µM
TGI (786-0 renal): 15.6 µM
TGI (HS 578T breast): > 100 µM
TGI (OVCAR-5 ovarian): 32.1 µM
TGI (SR leukemia): 35.5 µM
TGI (SF-295 CNS): > 100 µM
TGI (NCI-H460 lung): > 100 µM
TGI (CCRF-CEM leukemia): 8.1 µM
TGI (SK-OV-3 ovarian): > 100 µM
TGI (NCI/ADR-RES ovarian): > 86.6 µM
TGI (MCF7 breast): 43.5 µM
TGI (UACC-62 melanoma): 40 µM
TGI (HOP-92 NSCLC): 71.9 µM
TGI (MOLT-4 leukemia): 42.1 µM
TGI (MALME-3M melanoma): 38.6 µM
TGI (M14 melanoma): 25 µM
TGI (MDA-N): 64.4 µM
TGI (DU-145 prostate): > 100 µM
TGI (TK-10 renal): > 82.5 µM
TGI (SNB-19 CNS): > 100 µM
TGI (HCC-2998 colon): > 78.9 µM
TGI (HT29 colon): 32.2 µM
TGI (RPMI-8226 leukemia): 44.4 µM

Cn1c2ccccc2c(=S)c2cc(NC(=O)CCCCC(=O)Nc3ccc4c(c3)c(=S)c3ccccc3n4C)ccc21
TGI (CAKI-1 renal): > 100 µM
TGI (SK-MEL-28 melanoma): > 100 µM
TGI (NCI-H23 lung): > 100 µM
TGI (OVCAR-8 ovarian): > 100 µM
TGI (SW-620 colon): > 100 µM
TGI (LOX IMVI melanoma): > 100 µM
TGI (IGROV1 ovarian): > 100 µM
TGI (T-47D breast): > 100 µM
TGI (SNB-75 CNS): > 100 µM
TGI (SN12C renal): > 100 µM
TGI (HOP-62 NSCLC): > 100 µM
TGI (UO-31 renal): > 100 µM
TGI (MDA-MB-231 breast): > 100 µM
TGI (NCI-H522 lung): > 100 µM
TGI (MDA-MB-435): > 100 µM
TGI (K-562 leukemia): > 100 µM
TGI (NCI-H226 lung): > 100 µM
TGI (A549 NSCLC): > 100 µM
TGI (U251 CNS): > 100 µM
TGI (OVCAR-3 ovarian): > 100 µM
TGI (EKVX NSCLC): > 100 µM
TGI (ACHN renal): > 100 µM
TGI (COLO 205 colon): > 100 µM
TGI (PC-3 prostate): > 100 µM
TGI (RXF 393 renal): > 100 µM
TGI (A498 renal): > 100 µM
TGI (SK-MEL-2 melanoma): > 100 µM
TGI (HCT-15 colon): > 100 µM
TGI (SF-268 CNS): > 100 µM
TGI (KM12 colon): > 100 µM
TGI (SF-539 CNS): > 100 µM
TGI (HCT-116 colon): > 100 µM
TGI (SK-MEL-5 melanoma): > 100 µM
TGI (UACC-257 melanoma): > 100 µM
TGI (BT-549 breast): > 100 µM
TGI (786-0 renal): > 100 µM
TGI (HS 578T breast): > 100 µM
TGI (OVCAR-5 ovarian): > 100 µM
TGI (SR leukemia): > 100 µM
TGI (SF-295 CNS): > 100 µM
TGI (NCI-H460 lung): > 100 µM
TGI (CCRF-CEM leukemia): > 100 µM
TGI (SK-OV-3 ovarian): > 100 µM
TGI (NCI/ADR-RES ovarian): > 100 µM
TGI (MCF7 breast): > 100 µM
TGI (UACC-62 melanoma): > 100 µM
TGI (HOP-92 NSCLC): > 100 µM
TGI (MOLT-4 leukemia): > 100 µM
TGI (M14 melanoma): > 100 µM
TGI (MDA-N): > 100 µM
TGI (DU-145 prostate): > 100 µM
TGI (TK-10 renal): > 100 µM
TGI (SNB-19 CNS): > 100 µM
TGI (HCC-2998 colon): > 100 µM
TGI (HT29 colon): > 100 µM
TGI (RPMI-8226 leukemia): > 100 µM
